Patent publication US20150125889A1, “IN VITRO DETECTION OF MICROORGANISMS WITH AZOREDUCTASE ACTIVITY” (BIOMÉRIEUX, priority 2012, published 2015)

Columns and labels:
Assay in all cases: Reduction of azo substrates over 24 hours at 35° C., microtitration plate (Example 1)
Assay type in all cases: cell-based
Acinetobacter baumanii = test system: Acinetobacter baumanii; set-up: key to RED (substrate reduced or not): RED indicates whether the substrate is reduced (Y) or not (N); RED indicates whether the substrate is reduced (Y) or not (N); key to Decol (substrate decolourized, decrease in absorbance) / Fluo (fluorescence multiplied by 2 relative to substrate-free control) / Co (growth, absorbance at 660 nm): The symbol “+” means good growth/decolourization/significant increase in fluorescence; The symbol “+/−” means difficult growth; The symbol “−” means that there is no growth/decolourization/significant increase in fluorescence; conditions: A. baumannii, substrate 35 mg/l
Experimental: (§1) Reduction of the “azo” function of the substrates listed in Table I by the species listed in Table II, each species being represented by a strain, is tested in a microtitration plate.
(§2) The reaction medium consists of: • Trypcase soya broth • Substrate 35 mg/l • 0.5 MacFarland inoculum
(§3) The reduction of the substrate and the growth of the microorganisms are monitored using an Infinite® M200 Tecan microplate reader at 35° C. over 24 hours.
(§4) The growth is monitored by the absorbance at 660 nm and the reduction of the substrates by absorbance and fluorescence at the specific wavelengths indicated in Table III.
(§5) The substrate is considered as reduced by the microorganisms when the substrate is decolourized (monitored by the decrease in absorbance) (Decol) and/or when the fluorescence of the substrate is multiplied by 2 relative to the base fluorescence of a substrate-free control (Fluo). The growth is indicated by Co. The symbol “+” means good growth/decolourization/significant increase in fluorescence. The symbol “+/−” means difficult growth. The symbol “−” means that there is no growth/decolourization/significant increase in fluorescence. RED indicates whether the substrate is reduced (Y) or not (N).

Enterococcus faecalis = test system: Enterococcus faecalis; set-up: key to RED (substrate reduced or not): RED indicates whether the substrate is reduced (Y) or not (N); RED indicates whether the substrate is reduced (Y) or not (N); key to Decol (substrate decolourized, decrease in absorbance) / Fluo (fluorescence multiplied by 2 relative to substrate-free control) / Co (growth, absorbance at 660 nm): The symbol “+” means good growth/decolourization/significant increase in fluorescence; The symbol “+/−” means difficult growth; The symbol “−” means that there is no growth/decolourization/significant increase in fluorescence; conditions: E. faecalis, substrate 35 mg/l
Experimental: as §1, §2, §3, §4, §5

Cronobacter muytjensii = test system: Cronobacter muytjensii; set-up: key to RED (substrate reduced or not): RED indicates whether the substrate is reduced (Y) or not (N); RED indicates whether the substrate is reduced (Y) or not (N); key to Co (growth, absorbance at 660 nm) / Decol (substrate decolourized, decrease in absorbance) / Fluo (fluorescence multiplied by 2 relative to substrate-free control): The symbol “+” means good growth/decolourization/significant increase in fluorescence; The symbol “+/−” means difficult growth; The symbol “−” means that there is no growth/decolourization/significant increase in fluorescence; conditions: E. muytjensii, substrate 35 mg/l
Experimental: as §1, §2, §3, §4, §5

Escherichia coli = test system: Escherichia coli; set-up: key to RED (substrate reduced or not): RED indicates whether the substrate is reduced (Y) or not (N); RED indicates whether the substrate is reduced (Y) or not (N); key to Co (growth, absorbance at 660 nm) / Decol (substrate decolourized, decrease in absorbance) / Fluo (fluorescence multiplied by 2 relative to substrate-free control): The symbol “+” means good growth/decolourization/significant increase in fluorescence; The symbol “+/−” means difficult growth; The symbol “−” means that there is no growth/decolourization/significant increase in fluorescence; conditions: E. coli, substrate 35 mg/l
Experimental: as §1, §2, §3, §4, §5

[1] = test system: Staphylococcus epidermidis; set-up: key to RED (substrate reduced or not): RED indicates whether the substrate is reduced (Y) or not (N); RED indicates whether the substrate is reduced (Y) or not (N); key to Co (growth, absorbance at 660 nm) / Decol (substrate decolourized, decrease in absorbance) / Fluo (fluorescence multiplied by 2 relative to substrate-free control): The symbol “+” means good growth/decolourization/significant increase in fluorescence; The symbol “+/−” means difficult growth; The symbol “−” means that there is no growth/decolourization/significant increase in fluorescence; conditions: S. epidermidis, substrate 35 mg/l
Experimental: as §1, §2, §3, §4, §5

Staphylococcus aureus = test system: Staphylococcus aureus; set-up: key to RED (substrate reduced or not): RED indicates whether the substrate is reduced (Y) or not (N); RED indicates whether the substrate is reduced (Y) or not (N); key to Co (growth, absorbance at 660 nm) / Decol (substrate decolourized, decrease in absorbance) / Fluo (fluorescence multiplied by 2 relative to substrate-free control): The symbol “+” means good growth/decolourization/significant increase in fluorescence; The symbol “+/−” means difficult growth; The symbol “−” means that there is no growth/decolourization/significant increase in fluorescence; conditions: S. aureus, substrate 35 mg/l
Experimental: as §1, §2, §3, §4, §5

Geotrichum candidum = test system: Geotrichum candidum; set-up: key to RED (substrate reduced or not): RED indicates whether the substrate is reduced (Y) or not (N); RED indicates whether the substrate is reduced (Y) or not (N); key to Co (growth, absorbance at 660 nm) / Decol (substrate decolourized, decrease in absorbance) / Fluo (fluorescence multiplied by 2 relative to substrate-free control): The symbol “+” means good growth/decolourization/significant increase in fluorescence; The symbol “+/−” means difficult growth; The symbol “−” means that there is no growth/decolourization/significant increase in fluorescence; conditions: G. candidum, substrate 35 mg/l
Experimental: as §1, §2, §3, §4, §5

Candida albicans = test system: Candida albicans; set-up: key to RED (substrate reduced or not): RED indicates whether the substrate is reduced (Y) or not (N); RED indicates whether the substrate is reduced (Y) or not (N); key to Co (growth, absorbance at 660 nm) / Decol (substrate decolourized, decrease in absorbance) / Fluo (fluorescence multiplied by 2 relative to substrate-free control): The symbol “+” means good growth/decolourization/significant increase in fluorescence; The symbol “+/−” means difficult growth; The symbol “−” means that there is no growth/decolourization/significant increase in fluorescence; conditions: substrate 35 mg/l
Experimental: as §1, §2, §3, §4, §5

Kocuria rosea = test system: Kocuria rosea; set-up: key to RED (substrate reduced or not): RED indicates whether the substrate is reduced (Y) or not (N); RED indicates whether the substrate is reduced (Y) or not (N); key to Co (growth, absorbance at 660 nm) / Decol (substrate decolourized, decrease in absorbance) / Fluo (fluorescence multiplied by 2 relative to substrate-free control): The symbol “+” means good growth/decolourization/significant increase in fluorescence; The symbol “+/−” means difficult growth; The symbol “−” means that there is no growth/decolourization/significant increase in fluorescence; conditions: K. rosea, substrate 35 mg/l
Experimental: as §1, §2, §3, §4, §5

Pseudomonas aeruginosa = test system: Pseudomonas aeruginosa; set-up: key to RED (substrate reduced or not): RED indicates whether the substrate is reduced (Y) or not (N); RED indicates whether the substrate is reduced (Y) or not (N); key to Co (growth, absorbance at 660 nm) / Decol (substrate decolourized, decrease in absorbance) / Fluo (fluorescence multiplied by 2 relative to substrate-free control): The symbol “+” means good growth/decolourization/significant increase in fluorescence; The symbol “+/−” means difficult growth; The symbol “−” means that there is no growth/decolourization/significant increase in fluorescence; conditions: P. aeruginosa, substrate 35 mg/l
Experimental: as §1, §2, §3, §4, §5

| Compound | Co (growth, absorbance at 660 nm) (Acinetobacter baumanii) | Decol (substrate decolourized, decrease in absorbance) (Acinetobacter baumanii) | Fluo (fluorescence multiplied by 2 relative to substrate-free control) (Acinetobacter baumanii) | RED (substrate reduced or not) (Acinetobacter baumanii) | Co (growth, absorbance at 660 nm) (Enterococcus faecalis) | Decol (substrate decolourized, decrease in absorbance) (Enterococcus faecalis) | Fluo (fluorescence multiplied by 2 relative to substrate-free control) (Enterococcus faecalis) | RED (substrate reduced or not) (Enterococcus faecalis) | Co (growth, absorbance at 660 nm) (Cronobacter muytjensii) | Decol (substrate decolourized, decrease in absorbance) (Cronobacter muytjensii) | Fluo (fluorescence multiplied by 2 relative to substrate-free control) (Cronobacter muytjensii) | RED (substrate reduced or not) (Cronobacter muytjensii) | Co (growth, absorbance at 660 nm) (Escherichia coli) | Decol (substrate decolourized, decrease in absorbance) (Escherichia coli) | Fluo (fluorescence multiplied by 2 relative to substrate-free control) (Escherichia coli) | RED (substrate reduced or not) (Escherichia coli) | Co (growth, absorbance at 660 nm) [1] | Decol (substrate decolourized, decrease in absorbance) [1] | Fluo (fluorescence multiplied by 2 relative to substrate-free control) [1] | RED (substrate reduced or not) [1] | also measured |
| --- | --- | --- | --- | --- | --- | --- | --- | --- | --- | --- | --- | --- | --- | --- | --- | --- | --- | --- | --- | --- | --- |
| Oc1ccc2ccccc2c1/N=N/c1ccc(/C=C/c2ccnc3ccccc23)cc1 [BF38, 4″-Quinoline-4′-styryl-azo-2-Hydroxynaphthol] | + | − | − | N | + | + | − | Y | + | + | − | Y | + | + | − | Y | + | + | − | Y | Co (growth, absorbance at 660 nm) (Staphylococcus aureus): +; Decol (substrate decolourized, decrease in absorbance) (Staphylococcus aureus): +; Fluo (fluorescence multiplied by 2 relative to substrate-free control) (Staphylococcus aureus): −; RED (substrate reduced or not) (Staphylococcus aureus): Y; Co (growth, absorbance at 660 nm) (Geotrichum candidum): +; Decol (substrate decolourized, decrease in absorbance) (Geotrichum candidum): −; Fluo (fluorescence multiplied by 2 relative to substrate-free control) (Geotrichum candidum): −; RED (substrate reduced or not) (Geotrichum candidum): N; Co (growth, absorbance at 660 nm) (Candida albicans): +; Decol (substrate decolourized, decrease in absorbance) (Candida albicans): −; Fluo (fluorescence multiplied by 2 relative to substrate-free control) (Candida albicans): −; RED (substrate reduced or not) (Candida albicans): N; Co (growth, absorbance at 660 nm) (Kocuria rosea): −; Decol (substrate decolourized, decrease in absorbance) (Kocuria rosea): −; Fluo (fluorescence multiplied by 2 relative to substrate-free control) (Kocuria rosea): −; Co (growth, absorbance at 660 nm) (Pseudomonas aeruginosa): +; Decol (substrate decolourized, decrease in absorbance) (Pseudomonas aeruginosa): +; Fluo (fluorescence multiplied by 2 relative to substrate-free control) (Pseudomonas aeruginosa): −; RED (substrate reduced or not) (Pseudomonas aeruginosa): Y |
| Nc1ccc(/N=N/c2ccc(S(=O)(=O)O)cc2)cc1S(=O)(=O)O [4-aminoazobenzene-3,4′-disulfonic acid, 4-Aminoazobenzene-3,4′-disulfonic acid] | + | − | − | N | + | + | + | Y | + | − | − | N | + | − | − | N | + | − | − | N | Co (growth, absorbance at 660 nm) (Staphylococcus aureus): +; Decol (substrate decolourized, decrease in absorbance) (Staphylococcus aureus): −; Fluo (fluorescence multiplied by 2 relative to substrate-free control) (Staphylococcus aureus): −; RED (substrate reduced or not) (Staphylococcus aureus): N; Co (growth, absorbance at 660 nm) (Geotrichum candidum): +; Decol (substrate decolourized, decrease in absorbance) (Geotrichum candidum): −; Fluo (fluorescence multiplied by 2 relative to substrate-free control) (Geotrichum candidum): −; RED (substrate reduced or not) (Geotrichum candidum): N; Co (growth, absorbance at 660 nm) (Candida albicans): +; Decol (substrate decolourized, decrease in absorbance) (Candida albicans): +; Fluo (fluorescence multiplied by 2 relative to substrate-free control) (Candida albicans): +; RED (substrate reduced or not) (Candida albicans): Y; Co (growth, absorbance at 660 nm) (Kocuria rosea): −; Decol (substrate decolourized, decrease in absorbance) (Kocuria rosea): −; Fluo (fluorescence multiplied by 2 relative to substrate-free control) (Kocuria rosea): −; Co (growth, absorbance at 660 nm) (Pseudomonas aeruginosa): +; Decol (substrate decolourized, decrease in absorbance) (Pseudomonas aeruginosa): −; Fluo (fluorescence multiplied by 2 relative to substrate-free control) (Pseudomonas aeruginosa): −; RED (substrate reduced or not) (Pseudomonas aeruginosa): N |
